{"source": "patent US20080045582A1", "about": "“ENA-78 Gene Polymorphisms and Protein Concentrations as Diagnostic and Prognostic Tools” (priority 2006, published 2008)", "key": {"MCP-1": {"tested_on": "MCP-1", "test": "MCP-1 production by non-stimulated human umbilical vein endothelial cells, multiplex protein measurement", "type": "cell-based", "protocol": "(§1) Human umbilical vein endothelial cells were obtained (Clonetics Cell Systems; Cambrex Bio Science Walkersville, Inc., Walkersville, Md.). Approximately 5×10^5 viable cells were seeded in endothelial cell growth-supplemented basal medium (EGM-2-endothelial cell medium-2; Cambrex Bio Science Walkersville, Inc.) and maintained at 37° C. under a 5% carbon dioxide atmosphere per manufacturer's protocol. The culture medium was changed 24 hours after seeding and every 48 hours thereafter until confluence. Cells were then treated with trypsin, seeded in a 48-well culture dish, and incubated under the conditions previously described. Cells used in this Example were from the third passage.\n(§2) After cells reached 70-80% confluence in the culture dish, they were allowed to become quiescent in unsupplemented, serum-free medium for 24 hours before treatment and then placed in medium containing 2% fetal bovine serum. Atorvastatin (LKT Laboratories Inc., St. Paul, Minn.) was dissolved in dimethylsulfoxide (Sigma-Aldrich, St. Louis, Mo.). Cells were treated for 24 hours with atorvastatin 1-50 μM alone or with atorvastatin plus mevalonate 250 μM (Sigma-Aldrich). Controls were cells cultured without atorvastatin or atorvastatinmevalonate. […] All experiments were performed in duplicate.\n(§3) After treatment, culture-conditioned media were collected, divided into aliquots, and stored at −80° C. for no longer than 7 days until multiplex measurement of chemokines, cytokines, and angiogenic factors was performed.\n(§4) The culture-conditioned media protein content of epithelial neutrophil-activating peptide-78 (ENA-78), interleukin-8, (IL-8), monocyte chemotactic protein-1 (MCP-1), interleukin-6 (IL-6), interleukin-10 (IL-10), fibroblast growth factor (FGF), and granulocyte colony-stimulating factor (G-CSF) were measured by means of flow-based immunofluorescence multiplex detection (Fluorokine MAP Human Cytokine Panel; R&D Systems Inc., Minneapolis, Minn.) with the Luminex 100 IS platform (Luminex Corp., Austin, Tex.). Concentrations for each sample were normalized against milligrams of total protein by using a standard bicinchoninic acid protein assay (Pierce Biotechnology, Inc., Rockford, Ill.). Samples were assayed in duplicate.\n(§5) Standard curves of best fit for each analyte were generated by plotting the median fluorescence intensities of the analyte standards against their known concentrations by using Beadview multiplex data analysis software version 1 (Upstate, Charlottesville, Va.).\n(§6) Differences in biomolecular concentrations were compared by treatment group by applying one-way analysis of variance and a post-hoc Tukey's test as appropriate. The Jonckheere Terpstra test was performed to assess the trend for differences in biomolecular concentrations across concentrations of atorvastatin. […]"}, "FGF": {"tested_on": "FGF", "test": "FGF production by non-stimulated human umbilical vein endothelial cells, multiplex protein measurement", "type": "cell-based", "conditions": "atorvastatin 1-50 μM, 24 hours, FIG. 12", "protocol": "as §1, with “passage. […]” for “passage.”\nThe culture-conditioned media protein content of epithelial neutrophil-activating peptide-78 (ENA-78), interleukin-8, (IL-8), monocyte chemotactic protein-1 (MCP-1), interleukin-6 (IL-6), interleukin-10 (IL-10), fibroblast growth factor (FGF), and granulocyte colony-stimulating factor (G-CSF) were measured by means of flow-based immunofluorescence multiplex detection (Fluorokine MAP Human Cytokine Panel; R&D Systems Inc., Minneapolis, Minn.) with the Luminex 100 IS platform (Luminex Corp., Austin, Tex.). […]"}, "IL-8": {"tested_on": "IL-8", "test": "IL-8 production by non-stimulated human umbilical vein endothelial cells, multiplex protein measurement", "type": "cell-based", "protocol": "as §1, §2, §3, §4, §5\nDifferences in biomolecular concentrations were compared by treatment group by applying one-way analysis of variance and a post-hoc Tukey's test as appropriate. The Jonckheere Terpstra test was performed to assess the trend for differences in biomolecular concentrations across concentrations of atorvastatin. A p value below 0.05 was considered to indicate a statistically significant difference. Statistical analyses were performed with SPSS software, version 11.5 (SPSS Inc., Chicago, Ill.)."}, "ENA-78 [1]": {"tested_on": "ENA-78", "test": "IL-1beta-stimulated ENA-78 production from HUVECs, cytometric immunofluorescence", "type": "cell-based, human", "conditions": "for ENA-78 production reduced by, compared with IL-1beta-stimulated cells in the absence of AT: AT pre-treatment 2 h before IL-1beta", "protocol": "Human umbilical vein endothelial cells (HUVECs) (Clonetics Cell Systems; Cambrex Bio Science Walkersville, Inc., Walkersville, USA) were cultured as previously described. Briefly, HUVECs between passes three and four were seeded at a density of 2.5×10^4 cells per cm^2 and cultured to 80% confluence with endothelial cell growth-supplemented medium (EGM-2-endothelial cell medium-2; Cambrex Bio Science Walkersville, Inc.). Once confluent, media was changed to serum free endothelial basal media (EBM-2-endothelial cell medium-2; Cambrex Bio Science Walkersville, Inc.) for 24 hours prior to treatment, in which EBM-2 media supplemented to a 2% FBS concentration was used. Treatments consisted of atorvastatin calcium (AT; LKT Laboratories Inc., St. […] All were dissolved in molecular grade water. All final DMSO concentrations were less then 0.1%. […] In experiments investigating the impact of AT on IL-1beta-stimulated ENA-78 production, HUVECs were pre-treated with AT followed by IL-1beta stimulation two hours later. […] In a separate set of experiments, cells were cultured with IL-1beta and AT in the presence or absence of mevalonate, FPP, and GGPP to determine whether AT inhibition of ENA-78 production was dependent on HMG-CoA reductase inhibition and subsequent downstream pathways. Cell culture supernates for all experiments were stored at -20° C. until analysis, which was performed within seven days. ENA-78 concentrations were measured and normalized to total protein content in cell culture supernates using cytometric immunofluorescence as previously described. Ribonucleic acid (RNA) was isolated using a commercial kit (RNeasy mini kit, Qiagen Inc., Valencia, USA). Complementary deoxyribonucleic acid (cDNA) conversion was performed by high capacity cDNA reverse transcription (Applied Biosystems, Foster City, USA) per protocol using roughly 2 μg of total RNA. RNA quality was assessed by absorbance (Nanodrop, Nanodrop Technologies, Wilmington, USA). Real-time reverse-transcription PCR (RT-PCR) was done using primer and probe sets for CXCL5 normalized to a housekeeping gene, glyceraldehyde-3-phosphate dehydrogenase (GAPDH; Taqman Gene Expression Assays, Applied Biosystems Inc.). […] PCR for both CXCL5 and GAPDH was performed at the same time using the following conditions: 95° C. for 2 minutes; 35 cycles of 95° C. for 30 seconds, 59° C. for 30 seconds, and 72° C. for 30 seconds; followed by 7 minutes of elongation at 72° C. Statistical differences in normalized protein concentrations and gene expression levels were determined by one way ANOVA and post-hoc Tukey analysis. […] An independent t-test was used to compare treatment differences at the same time points in the dose range analysis. […] Statistical analyses were performed with SPSS software, version 11.5 (SPSS Inc., Chicago, USA)."}, "CXCL5": {"tested_on": "CXCL5", "test": "CXCL5 gene expression in HUVECs, real-time RT-PCR normalized to GAPDH", "type": "cell-based, human", "protocol": "Human umbilical vein endothelial cells (HUVECs) (Clonetics Cell Systems; Cambrex Bio Science Walkersville, Inc., Walkersville, USA) were cultured as previously described. Briefly, HUVECs between passes three and four were seeded at a density of 2.5×10^4 cells per cm^2 and cultured to 80% confluence with endothelial cell growth-supplemented medium (EGM-2-endothelial cell medium-2; Cambrex Bio Science Walkersville, Inc.). Once confluent, media was changed to serum free endothelial basal media (EBM-2-endothelial cell medium-2; Cambrex Bio Science Walkersville, Inc.) for 24 hours prior to treatment, in which EBM-2 media supplemented to a 2% FBS concentration was used. Treatments consisted of atorvastatin calcium (AT; LKT Laboratories Inc., St. […] All were dissolved in molecular grade water. All final DMSO concentrations were less then 0.1%. […] In experiments investigating the impact of AT on IL-1beta-stimulated ENA-78 production, HUVECs were pre-treated with AT followed by IL-1beta stimulation two hours later. […] In a separate set of experiments, cells were cultured with IL-1beta and AT in the presence or absence of mevalonate, FPP, and GGPP to determine whether AT inhibition of ENA-78 production was dependent on HMG-CoA reductase inhibition and subsequent downstream pathways. Cell culture supernates for all experiments were stored at -20° C. until analysis, which was performed within seven days. ENA-78 concentrations were measured and normalized to total protein content in cell culture supernates using cytometric immunofluorescence as previously described. Ribonucleic acid (RNA) was isolated using a commercial kit (RNeasy mini kit, Qiagen Inc., Valencia, USA). […] RNA quality was assessed by absorbance (Nanodrop, Nanodrop Technologies, Wilmington, USA). […] Statistical differences in normalized protein concentrations and gene expression levels were determined by one way ANOVA and post-hoc Tukey analysis. […]"}, "ENA-78 [2]": {"tested_on": "ENA-78", "test": "ENA-78 production by non-stimulated human umbilical vein endothelial cells, multiplex protein measurement", "type": "cell-based", "conditions": "24 hours", "protocol": "as §1, §2, §3, §4, §5, §6"}}, "data": [{"smiles": "CC(C)c1c(C(=O)Nc2ccccc2)c(-c2ccccc2)c(-c2ccc(F)cc2)n1CC[C@@H](O)C[C@@H](O)CC(=O)O", "note": "[atorvastatin]", "values": [{"measurement": "MCP-1 concentrations vs control condition", "setting": "MCP-1; concentrations of atorvastatin less than 50 μM", "value": "did not significantly differ"}, {"measurement": "reduction in MCP-1", "setting": "MCP-1; highest concentration of atorvastatin (50 μM), 24 hours", "value": 83, "unit": "%"}, {"measurement": "MCP-1 production", "setting": "MCP-1; highest concentration of atorvastatin (50 μM), 24 hours (control 4556±514)", "value": "782±105", "unit": "pg/mg protein"}, {"measurement": "concentrations of FGF", "setting": "FGF", "value": "did not change"}, {"measurement": "IL-8 concentrations lowered by", "setting": "IL-8; 1st of the four atorvastatin groups (1-50 μM), 24 hours", "value": 26, "unit": "%"}, {"measurement": "IL-8 concentrations lowered by", "setting": "IL-8; 2nd of the four atorvastatin groups (1-50 μM), 24 hours", "value": 72, "unit": "%"}, {"measurement": "IL-8 concentrations lowered by", "setting": "IL-8; 3rd of the four atorvastatin groups (1-50 μM), 24 hours", "value": 83, "unit": "%"}, {"measurement": "IL-8 concentrations lowered by", "setting": "IL-8; 4th of the four atorvastatin groups (1-50 μM), 24 hours", "value": 89, "unit": "%"}, {"measurement": "minimum effective concentration giving significant reduction in IL-8 compared with control", "setting": "IL-8; 24 hours, FIG. 10B", "value": 5, "unit": "µM"}, {"measurement": "IL-8 production", "setting": "IL-8; atorvastatin 5 μM, 24 hours (control 551±69)", "value": "155±45", "unit": "pg/mg protein"}, {"measurement": "ENA-78 production reduced by, compared with IL-1beta-stimulated cells in the absence of AT", "setting": "ENA-78 [1]; 1st of the five AT dose groups (1, 5, 10, 25, 50 μM)", "value": 38, "unit": "%"}, {"measurement": "ENA-78 production reduced by, compared with IL-1beta-stimulated cells in the absence of AT", "setting": "ENA-78 [1]; 2nd of the five AT dose groups (1, 5, 10, 25, 50 μM)", "value": 70, "unit": "%"}, {"measurement": "ENA-78 production reduced by, compared with IL-1beta-stimulated cells in the absence of AT", "setting": "ENA-78 [1]; 3rd of the five AT dose groups (1, 5, 10, 25, 50 μM)", "value": 78, "unit": "%"}, {"measurement": "ENA-78 production reduced by, compared with IL-1beta-stimulated cells in the absence of AT", "setting": "ENA-78 [1]; 4th of the five AT dose groups (1, 5, 10, 25, 50 μM)", "value": 93, "unit": "%"}, {"measurement": "ENA-78 production reduced by, compared with IL-1beta-stimulated cells in the absence of AT", "setting": "ENA-78 [1]; 5th of the five AT dose groups (1, 5, 10, 25, 50 μM)", "value": 99, "unit": "%"}, {"measurement": "IL-1beta-stimulated ENA-78 production", "setting": "ENA-78 [1]; AT at concentrations ≧25 uM", "value": "returned to baseline"}, {"measurement": "IL-1beta-stimulated ENA-78 production", "setting": "ENA-78 [1]; IL-1beta and AT 10 uM, FIG. 16", "value": "1054 ± 349", "unit": "pg/mg"}, {"measurement": "time at which AT attenuation of ENA-78 production relative to IL-1beta was most pronounced", "setting": "ENA-78 [1]; time course 0, 4, 12, 24, 48 hours, FIG. 15", "value": 48, "unit": "h"}, {"measurement": "constitutive expression of CXCL5", "setting": "CXCL5; AT alone, 24 hours, FIG. 17", "value": "significantly lowered"}, {"measurement": "CXCL5 expression compared to IL-1beta alone", "setting": "CXCL5; pre-treated with 10 μM of AT followed by IL-1beta in two hours", "value": "no difference"}, {"measurement": "reduction in ENA-78 production compared with untreated controls", "setting": "ENA-78 [2]; escalating concentrations of atorvastatin (10 μM to 50 μM), FIG. 10A", "value": "45-85%"}, {"measurement": "ENA-78 production vs untreated control", "setting": "ENA-78 [2]; lower concentrations of atorvastatin", "value": "not significantly altered"}]}]}
